The term melting point denotes the temperature, or range, at which the solid turns liquid.

The compound `O=C(CN1CCN(C(c2ccccc2)c2ccccc2)CC1)Nc1ccc2ncnn2n1` yielded a melting point of 203 to 204 °C.

As to `CCC(=O)NCCCC(=O)O`, the melting point was in the range of 85 to 90 °C.

`O=C(Cc1ccccc1)Nc1cnc(-c2ccccc2)nc1Cl` returned a melting point of 169 °C.

`Cn1c2ccc(OCc3ccccc3)cc2c2c(CC(=O)N3CCCC3)nn(-c3ccccc3)c(=O)c21` had a melting point of 203 to 204 °C.

Compound `CCCCOC1OC(CO)C(O)C(O)C1(O)N(CC)C(=O)N(CCCl)N=O` (stereo unspecified) showed a melting point of 87 to 89 °C.

In turn, `COc1ccc(-c2cc3cc(F)c(F)cc3[nH]2)cc1NC(=S)Nc1cc(Cl)cc(Cl)c1` registered a melting point of 203 to 205 °C.

As for `Cc1sc2c(Br)c3ccccc3c(-c3cc(Br)c(O)c(Br)c3)c2c1C`, the melting point fell in the range of 172 to 174 °C.

`COC(=O)Nc1cccc(C(=O)C=CN(C)C)c1` returned a melting point of 210 to 211 °C.

As to `COc1cc(C(=O)Cl)ccc1OCc1ccccc1`, the melting point fell in the range of 63 to 65 °C.

Consider `COc1cc2nc(N3CCN(c4ccnc(N5CCOCC5)n4)CC3)nc(N)c2cc1OC`, for which the melting point was in the range of 232 to 233 °C.

Compound `OCCOc1ccccc1-c1ccccc1` returned a melting point of 71 to 75 °C.

`NCC1Cc2cc(-c3ccc(F)cc3)cc(F)c2O1` (stereo unspecified) had a melting point greater than 250 °C.

Consider `Cc1c(C)n(Cc2ccccc2)c2ncnc(Cl)c12`, for which the melting point fell in the range of 115 to 116 °C.

With `CCCCCCCCCCCC(=O)CO`, the melting point is 52 to 54 °C.

`COc1cccc(CC(=O)O)c1OCCCc1cn(-c2ccc(Cl)cn2)nc1C(C)C` returned a melting point of 148 to 149 °C.

For the compound `CCOC(=O)C1=C2NCCN2C(C)=C(C(=O)OC(C)C)C1c1cccc([N+](=O)[O-])c1` (stereo unspecified), the melting point came out at 136 °C.

`C=CCN(CC=C)c1ccc(C(C)N(O)C(N)=O)cc1` (stereo unspecified) came in with a melting point of 112 to 114 °C.

`CCCOc1ccc(C2=NN(C(=O)Nc3ccc(C(F)(F)F)cc3)CC2(C)C(=O)OC)cc1` (stereo unspecified) gave a melting point of 134 to 137 °C.

Regarding `CC1CCC(NS(=O)(=O)NC(=O)OCc2ccccc2)CC1` (stereo unspecified), the melting point fell in the range of 153 to 155 °C.

`CC1(C)C(=O)ON(Cc2ccccc2Br)C1=O`: the melting point was in the range of 44.5 to 45.5 °C.

Turning to `CC1(C)CN(CC(=O)c2ccccc2)c2cc([N+](=O)[O-])ccc2O1`, the melting point was 125 to 128 °C.

The compound `COc1ccc(Cl)cc1C(=O)NCc1ccc(-c2ccc(OC(C)(C)CO)cc2)cc1` yielded a melting point of 109 °C.

In turn, `COc1ccc(NC(=O)c2c(Cl)cccc2Cl)cc1OC1CCCC1` yielded a melting point of 184 to 185 °C.

`CC(C)Cn1c(CN2CCCS2(=O)=O)nc2c(N)nc3c(c21)CCCC3` showed a melting point of 200 to 203 °C.

For the compound `CCc1noc(-c2ncc3[nH]c4cccc(Oc5ccc(Cl)cc5)c4c3c2COC)n1`, the melting point is 170 °C.

Consider `COC(=O)CCCc1cc2nc(Cl)ccc2n1S(=O)(=O)c1ccccc1OC`, for which the melting point was determined as 115 °C.

`CCOc1ccc(S(=O)(=O)N2c3ccc(Cl)cc3C(O)(c3ccccc3Cl)C2C(=O)N(C)CC(=O)OC)cc1` (stereo unspecified) came in with a melting point of 168 to 171 °C.

As to `CC(C)OC(=O)CS(=O)(=O)C=C1SC=CS1`, the melting point was 127 to 128 °C.

Regarding `Cc1cc(-c2cnn3c(C(F)(F)F)cc(-c4ccc(Br)cc4)nc23)ccn1`, the melting point is 226 °C.

With `CCCNS(=O)(=O)c1cc2cc(P(=O)(OCC)OCC)c(=O)[nH]c2cc1Cl`, the melting point was greater than 300 °C.

Turning to `COc1cc(OC(C)C(=O)O)c2c3c(C(N)=O)cccc3n(Cc3ccccc3)c2c1` (stereo unspecified), the melting point lay in the range of 170 to 172 °C.

Regarding `COc1ccc2nc(NCC3CCN(CC4COc5ccccc5O4)CC3)sc2c1` (stereo unspecified), the melting point was found to be 135 °C.

`COc1ccc2ccc(N3Cc4ccccc4C3OCC(=O)O)nc2n1` (stereo unspecified) showed a melting point of 190 °C.

In the case of `Cc1ccc(C)c(C(=O)C=Cc2ccccc2C(=O)Cl)c1`, the melting point lay within 96 to 98 °C.

Consider `CCOC(=O)C1=C(COCc2nc(CCN)cs2)NC(C)=C(C(=O)OC)C1c1cccc(Cl)c1Cl` (stereo unspecified), for which the melting point was 110 to 112 °C.

`Cn1c(-c2ccc3c(c2)C(C)(C)OC(=O)N3)ccc1[N+](=O)[O-]`: the melting point was 180 to 185 °C.

Compound `CCCCCCCCCOc1ccc(-c2ccc(C3CCC(C#N)(CCCCCCCCC)CC3)cc2)cc1` (stereo unspecified) had a melting point of 86 °C.

As to `CC(C)[C@H](NC(=O)OCc1ccccc1)C(=O)N[C@@H](Cc1ccccc1)[C@@H](O)[C@@H](O)[C@H](Cc1ccccc1)NC(=O)[C@@H](NC(=O)N1CCN(C)CC1)C(C)C`, the melting point fell in the range of 216 to 219 °C.

Regarding `Cc1ccc(-c2cc(F)c(F)cc2-c2ccc(S(C)(=O)=O)cc2)cc1`, the melting point lay within 147 to 148 °C.

`O=C1C2CCN(CC2)C1CN1CCCCC1` (stereo unspecified): the melting point lay within 34 to 37 °C.

For `CCOC(=O)c1[nH]c(CC)c(C)c1CC(C)C`, the melting point lay in the range of 53 to 55 °C.

In the case of `CCOC(=O)c1ccc(NCCCCCCOc2ccc3ccccc3c2)cc1`, the melting point was 109 to 110 °C.

Regarding `CC(C)=NNc1cc2c(nn1)CCN(C(=O)c1ccc(Cl)cc1Cl)C2`, the melting point is 211 to 214 °C.

`COc1cc(/C=C/c2cc(/C=C/c3ccc4cc[nH]c4c3)n[nH]2)ccc1OCc1ccccn1` showed a melting point of 236 to 243 °C.

Regarding `Cc1nnc(-c2ccc3occ(-c4ccc(S(C)=O)cc4Cl)c3c2)o1` (stereo unspecified), the melting point lay in the range of 175 to 176 °C.

For the compound `COc1cc(CN2C(=O)c3ccsc3CC2C(=O)O)cc(OC)c1OC` (stereo unspecified), the melting point was 208 °C.

On to `CCC(CC)n1nnc2c(Oc3c(C)cc(C)cc3C)nc(C)c(C)c21`, for which the melting point was 127 to 129 °C.

`Nc1ccn2nc(-c3ccccc3)nc2c1` had a melting point of 212 to 213 °C.

Consider `Cc1nc(N(C)C)nc(N)c1-c1cc(Cl)cc(Cl)c1Cl`, for which the melting point was 151 to 153 °C.

Compound `CC(c1ccc2[nH]nc(S(=O)(=O)c3cccc4ccccc34)c2c1)N1CCN(C)CC1` (stereo unspecified) gave a melting point of 183 to 185 °C.

The compound `O=C(O)/C=C/C#Cc1cccc(S(=O)(=O)Nc2ccccc2)c1` returned a melting point of 188 to 190 °C.

Take `CCCn1c(=O)sc2cc(F)c(NC(=O)C=C(CC)NC(=O)OCC)cc21`: the melting point is 174 to 175 °C.

Take `CCOC(=O)/C=C/C=C/c1ccc(OCc2nc(-c3ccccc3)oc2C)cc1`: the melting point is 137 to 138 °C.

As to `CCOC(=O)c1cncc(O)c1`, the melting point amounted to 150 °C.

`Cn1nc(-c2ccccc2C=O)c2ccccc21` showed a melting point of 106 °C.

Regarding `CC(C)C1(C)N=C2c3ncccc3C(=O)N2C1=O` (stereo unspecified), the melting point lay within 125 to 128 °C.

The compound `CC1=C(C(=O)OCCO)C(c2ccccc2C(F)(F)F)C(C(=O)OCCO)=C(C)N1` yielded a melting point of 125 to 127 °C.

`COC(=O)C(=Cc1ccc(-c2cccc(N(C)C(=O)Nc3ccccc3)c2)cc1)OC` displayed a melting point of 186 °C.

In the case of `CSCC(=O)[C@H](Cc1ccccc1)NC(=O)[C@H](CC(C)C)NC(C)=O`, the melting point is 118 to 120 °C.

In turn, `O=CN1C(=O)[C@H]2N=C(Cc3ccccc3)O[C@H]21` yielded a melting point of 90 to 92 °C.

As for `CC(=O)c1ccc(N2CCN(CCC(=O)O)CC2)cc1`, the melting point fell in the range of 204 to 206 °C.

The compound `O=C(Nc1ccc(CN2C(=O)[C@H]3CCC[C@H]3Nc3ccccc32)cc1)OCc1ccccc1` (relative stereo) yielded a melting point of 162 °C.

For `Cc1cccc(Sc2c(O)c3ccc(Cl)cc3[nH]c2=O)c1`, the melting point lay in the range of 234 to 236 °C.

As for `COC(=O)C1=C(CC(=O)N2CCN(C)CC2)NC(CS(=O)c2ccccc2OC)=C(C(=O)OC)C1c1c(Cl)cccc1Cl` (stereo unspecified), the melting point amounted to 160 °C.

With `COc1ccc(-c2ccc(C=O)c(Cl)c2)cc1F`, the melting point was in the range of 116 to 118 °C.

`COc1ccc2c(c1)c(=O)n1nc(C(N)=O)cc1n2C`: the melting point is greater than 300 °C.

`O=c1c2cc(F)c(Cl)nc2n(-c2ccc(F)cc2F)c(=O)n1OCc1ccccc1` had a melting point of 215 to 216 °C.

As to `NCc1ccccc1N`, the melting point fell in the range of 58 to 61 °C.

The compound `CON=C(c1ccon1)c1ccccc1COc1cc(C)ccc1C` had a melting point of 104 to 108 °C.

On to `CC[Si](CC)(CC)O[C@@H](C(=O)OC)[C@@H](NC(=O)OC(C)(C)C)c1ccc(C(N)=O)cc1`, for which the melting point was 165 °C.

In the case of `CN(C(=O)c1ccc(Cl)c(Cl)c1)C1CCN(C)C12CCCCC2` (stereo unspecified), the melting point was in the range of 138 to 140 °C.

`OCc1cccc2c1CCCN2` gave a melting point of 120 to 122 °C.

Compound `O=S(=O)(c1ccc(Oc2ccccc2)cc1)c1cccc(S(=O)(=O)c2ccc(Oc3ccccc3)cc2)c1` gave a melting point of 70 to 75 °C.

The compound `COC(=O)C1=C(c2ccc3c(c2)OCO3)c2ccc(OCc3ccccc3)cc2C1=O` showed a melting point of 140 to 141 °C.

Turning to `CC(C)(C)OC(=O)c1ncn2c1C1CCCN1C(=O)c1ncccc1-2` (stereo unspecified), the melting point is 230 to 231 °C.

For `N#Cc1cn(-c2ccc([N+](=O)[O-])cc2)nc1[N+](=O)[O-]`, the melting point fell in the range of 172 to 175 °C.

For `O=C1CC(c2ccccc2)Cc2[nH]ccc(=O)c21` (stereo unspecified), the melting point was in the range of 207 to 209 °C.

For `Cc1nc(-c2cc(C(=O)O)c(=O)[nH]c2C)cs1`, the melting point was in the range of 297 to 299 °C.

As for `O=[N+]([O-])c1ccccc1OCc1csc(-c2ccccc2)n1`, the melting point was 95 °C.

`O=C(c1cc(C(F)(F)F)cc(C(F)(F)F)c1)N1CCOc2nccc(-c3ccccc3)c2C1` returned a melting point of 179 to 180 °C.

As to `N#Cc1ccc(N2C(=O)N(CCCCCN3C(=O)N(c4ccc(C#N)c(C(F)(F)F)c4)C(=O)C34CC4)C3(CC3)C2=O)cc1C(F)(F)F`, the melting point lay within 154 to 155 °C.

Turning to `COc1ccc(N2C(=O)N(c3cccc(C(N)=O)c3)c3nc(Nc4cccc(CCN(C)C)c4)ncc3C2C)cc1` (stereo unspecified), the melting point lay within 215 to 230 °C.

`CCCCCCCCCC(C)CNc1cccc(-c2ccnc3c(C(=O)c4cccs4)cnn23)c1` (stereo unspecified): the melting point is 108 to 110 °C.

Take `O=c1[nH]c2cc(Cl)ccc2c(O)c1-c1cccc(S(=O)(=O)c2ccccc2)c1`: the melting point came out at 260 °C.

`CN(C)C=Nc1ncc(I)c(Cl)n1`: the melting point lay within 99 to 100 °C.

`COc1cc(N2CCN(CCc3coc4ccc(F)cc34)CC2)c2ncccc2c1` displayed a melting point of 80 °C.

Values taken from a melting point compilation (Tetko et al.; mined from patent text by program, amines drawn as free bases though some values may be those of a salt).
